Drawing on publication PMC3701632, “Kinetic Features of L,D-Transpeptidase Inactivation Critical for β-Lactam Antibacterial Activity” (PLoS ONE, 2013), this text covers Kd, kcat and K0.5 for four compounds.

Series [1] deals with T1, Ldtfm catalytic domain (LdtfmC442A) (Enterococcus faecium, UniProt Q3Y185, C442A).
T1 construct: gene HMPREF0351_12555
Put plainly: biochemical.

Series [2] relates to CO/N=C(\C(=O)N[C@@H]1C(=O)N2C(C(=O)O)=C(CSc3nc(=O)c(=O)[nH]n3C)CS[C@H]12)c1csc(N)n1. Put plainly: purified protein. The series is classed as biochemical, Enterococcus faecium. The following applies: covalent acylenzyme turnover, saturable step assigned to oxyanion formation, 5 µM enzyme, 100 mM sodium phosphate pH 6.0, 20°C.
In series [3] the test system is CC1(C)S[C@@H]2[C@H](NC(=O)[C@H](N)c3ccccc3)C(=O)N2[C@H]1C(=O)O. Put plainly: purified protein. The series is classed as biochemical, Enterococcus faecium. The following applies: covalent acylenzyme turnover, saturable step assigned to oxyanion formation, 5 µM enzyme, 100 mM sodium phosphate pH 6.0, 20°C.

T1 sequence (Q3Y185 341-466 C442A): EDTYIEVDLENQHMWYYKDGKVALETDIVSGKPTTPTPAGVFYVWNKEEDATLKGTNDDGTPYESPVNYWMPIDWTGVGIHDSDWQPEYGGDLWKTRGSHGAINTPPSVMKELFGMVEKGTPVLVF

Usually Kd stands for the equilibrium constant for the complex coming apart. In the case of `C[C@@H](O)[C@H]1C(=O)N2C(C(=O)O)=C(S[C@@H]3CN[C@H](C(=O)Nc4cccc(C(=O)O)c4)C3)[C@H](C)[C@H]12` [ertapenem], in series [1], binding was put at a Kd of 50 mM.

In series [1], `CO/N=C(\C(=O)N[C@@H]1C(=O)N2C(C(=O)O)=C(CSc3nc(=O)c(=O)[nH]n3C)CS[C@H]12)c1csc(N)n1` [ceftriaxone] displayed a Kd of 44 mM.

For the compound `CC1(C)S[C@@H]2[C@H](NC(=O)[C@H](N)c3ccccc3)C(=O)N2[C@H]1C(=O)O` [ampicillin], binding in series [1] was characterised by a dissociation constant (Kd) of 79 mM. Broadly, the kcat is the number of substrate molecules converted per active site and unit of time at saturation. Regarding Ldtfm (Enterococcus faecium DO), the kcat in series [2] came to 0.00045 ± 5e-05 s⁻¹. For the same compound, in series [3], the K0.5 is 370 ± 30 µM and the kcat is 0.003 ± 0.00017 s⁻¹.
